The text below walks through data of patent publication US12552854B2, “Peptides that block presentation of antigenic islet peptides by HLA-DQ8 and methods for treating type-1 diabetes” (Icahn School of Medicine at Mount Sinai, priority 2019, dated 2026).

One may read the clearance as the rate of elimination divided by the concentration. A low value points to inefficient removal. Broadly, the half-life is how long it takes for the measured level to halve. For orientation: AUC(0-inf) means the area under the concentration-time curve extrapolated to infinity. High values mean high exposure, low ones low exposure. In general, Cmax refers to the peak of the concentration-time curve. For orientation: Tmax means the time from dosing to the highest level. Broadly, the bioavailability is dose-corrected exposure relative to a reference, in per cent. Low readings indicate little systemic uptake, high ones much systemic uptake.

SMILES strings stand for the structures. Values joined by “and” are separate entries in the source; they are usually repeats but may differ in a detail not shown here. Equal entries are not always repeated. “Also recorded” adds a separate entry of the source.

Data set [1] relates to PBMCs isolated from DQ8 positive T1D patients. In words: CFSE T-cell proliferation in PBMCs from DQ8 positive recent-onset T1D patients. Type of data set: cell-based, human. The settings on record: all peptides at 50 μg/ml. The text has this:
Subjects with a diagnosis of T1D within the previous 2 years were recruited from the Pediatric Endocrine clinic at Children Hospital at Montefiore and from the adult Endocrine clinics at Montefiore and Mount Sinai Hospitals (New York). Peripheral blood mononuclear cells (PBMCs) were isolated from heparinized blood using Ficoll-Paque (GE Healthcare); freshly isolated PBMCs were used for T-cell activation studies and for genotyping. DNA purified from the blood of the patients was typed for HLA-DQ as previously described (32). PBMCs isolated from DQ8 positive patients were seeded in 96 well plates with 200 μl medium (RPMI, 10% FBS). […] The stimulated PBMCs were assessed for cytokine production and T-cell proliferation as described above for mouse splenocytes. DQ8 typed patients with long standing T1D (>10 years) were used as negative controls in the experiments (no T-cell responses to islet peptides).

Data set [2] can be described thus: Pharmacokinetics of RI-CT in male CD-1 mice. The note with it: mouse, in vivo. As to the method: 30 μL of each STD, QC sample and matrix for blanks was added to separate wells of a 96 well plate. 800 μL of water:MeOH (95:5, v/v) was added to the STDs, QCs and blanks. For study samples, 400 μL of water:MeOH (95:5, v/v) was added to each. Mouse whole blood samples were diluted 1:2 with 0.1% formic acid in an aqueous 25 mM EDTA solution when samples were collected; consequently, there was an initial dilution factor of 3. Additionally, 400 μL of water:MeOH (95:5, v/v) was added to each diluted sample. To all samples, 20 μL of internal standard (200 ng/mL tolbutamide) solution in water was added. The samples were vortexed vigorously for 5 minutes and then loaded onto a pre-conditioned Oasis HLB 96-well SPE plate. The Oasis HLB 96-well SPE plate was conditioned with 1 mL of methanol and then rinsed with 1 mL of water before the samples were loaded. Once loaded onto the Oasis HLB 96-well SPE plate, residual solution was removed by vacuum. The samples were eluted into a clean 96-well plate with 800 μL of ACN: 0.1% aqueous formic acid (70:30, v/v). The samples were evaporated to dryness under nitrogen at ambient temperature using a TurboVap 96 Concentration Workstation (Caliper Life Sciences). The residues were reconstituted in 150 μL of ACN: 0.1% aqueous formic acid (25:75, v/v) and 10 μL of 0.1 M TCEP. The samples were vortexed for approximately 10 minutes and then aliquots were injected for LC-MS/MS analysis.
• LC System: System #731 • HPLC Pump: Shimadzu LC-30AD • Autosampler: Shimadzu SIL-30AC MP HPLC Conditions: • Mobile Phase A=0.1% Aqueous Formic Acid • Mobile Phase B=0.1% Formic Acid in ACN • Column Temperature=Ambient • Injection Volume=8 μL • Column=ACE C8, 2.1×50 mm, 5 μm • Flow rate=0.6 mL/min • MS/MS System: System #730 • SCIEX API 5500 Triple Quad (S/N 213451604) MS Conditions: • Scan Type=MRM • Polarity=Positive • Ion Source=ESI • CAD=10 • CUR=20 • GS1/GS2=50/50 • IS=2500 • TEM=550

In data set [3] the test system is splenocytes isolated from SJL-DQ8 mice. Kind of data set: Ex vivo CFSE T-cell proliferation, splenocytes of InsB:9-23-immunized SJL-DQ8 mice. Type of data set: cell-based, mouse. The note with it: all peptides at 50 μg/ml; 5 days. The text has this: ID NO: 23) and reverse primer [NT]
Another data set is described as follows: FIG. 23A. Here is the method: Table printed on a drawing sheet, FIG. 23A
Data from a dose of 10 mg/kg and a single discrete subcutaneous dose of 10 mg/kg are shown. FIG. 23B is a graph showing mean RI-CT whole blood concentrations in male CD-1 mice following a single IV bolus dose of 10 mg/kg and a single SC dose of 10 mg/kg. […] This is a long half-life that will make it feasible to use RI-CT in a clinical setting with a once daily dose.
First reader's note: IV arm; the last four rows (n, Mean, SD, CV%) are summary statistics over the animals, and the urine values are one merged cell for Mouse 1-4.

The test system of data set [4] is lymphocytes isolated from SJL-DQ8 mice immunized with GAD65. In words: Ex vivo T-cell activation to GAD65 peptide, lymphocytes of GAD65-immunized SJL-DQ8 mice. It counts as cell-based, mouse. The note with it: all peptides at 20 μg/ml; 48 hours. Here is the method: The mouse model used in this experiment was SJL-DQ8 mice. When immunized with different type 1 diabetes associated peptides, they developed strong T-cell responses to these peptides. In the ex vivo model, lymphocytes were taken from the spleen of these mice after immunization with an Insulin or GAD65 peptide. They were then stimulated with the peptide used for immunizations and the tested D-peptide was added to see if it blocked T-cell stimulation as measured by IL-2 and interferon γ (IFNγ) production (FIGS. 18 and 19).
The cells were treated with medium or GAD65 (with or without D-peptides), all peptides at 20 μg/ml. Supernatants from stimulated lymphocytes were collected 48 hours after stimulation and stored at −80° C. until the Luminex assay was performed. The Milliplex mouse cytokines/chemokines magnetic panel (EMD Millipore Corporation, Billerica, MA) and a Luminex 200 with xPONENT software (Luminex, Austin, Texas) were used to assay the cytokines following the manufacturer's instructions.

For `CC(C)C[C@@H](NC(=O)[C@@H](Cc1ccc(O)cc1)NC(=O)[C@@H](CC(C)C)NC(=O)[C@H](NC(=O)[C@@H](CS)NC(=O)CNC(=O)[C@@H](CCC(=O)O)NC(=O)[C@@H](CCCNC(=N)N)NC(=O)CNC(=O)CN)C(C)C)C(=O)N[C@H](C)C(=O)N[C@H](CCC(=O)O)C(=O)N[C@@H](C(=O)NCC(=O)NCC(=O)O)C(C)C` [RI-CT], in data set [1], the “T-cell proliferation induced by InsB:9-23 (CFSE assay), PBMCs of DQ8 positive T1D patients” value is recorded as “significantly suppressed; also recorded: significantly decreased”. In data set [2] (iv, 10 mg/kg), this compound gave a clearance of 1.62 L/h/kg and a half-life of 7.46 h. Further, in data set [2] (sc, 10 mg/kg), the AUC(0-inf) was 4.14 µg·h/mL, the highest level (Cmax) was 5.12 µg/mL, the Tmax amounted to 0.77 h and the bioavailability was 47%. Further, the half-life in data set [2] (sc, 10 mg/kg) is 6.02 h. For the same compound, the Vd in data set [2] (IV, single dose of 10 mg/kg, whole blood, read-out: volume of distribution) was 6.9 L/kg. In addition, in data set [3], the “T-cell proliferation induced by InsB:9-23 (CFSE assay), SJL-DQ8 splenocytes” value is listed as “significantly suppressed; also recorded: significantly decreased”. Besides, in the data set “FIG. 23A”, the “AUC0-24” value is 5.34 µg·h/mL; the “AUClast” value was 4.35 µg·h/mL and 6.26 µg·h/mL and 5.52 µg·h/mL; the “C0” value was determined as 15.4 µg/mL; the “MRTinf” value amounted to 4.72 h. In addition, in “FIG. 23A”, the “Urine | CLrenal” value was found to be 0.156 L/h/kg and the “Urine | Recovery (%)” value is given as 8.70%. The “blocking T cell activation ex vivo to GAD65 (IL-2, IFNγ production)” value in data set [4] is recorded as “some activity”.
